According to ChEMBL document CHEMBL6127052, “Discovery of membrane-targeting amphiphilic honokiol derivatives containing an oxazolethione moiety to combat methicillin-resistant Staphylococcus aureus (MRSA) infections” (Eur J Med Chem, 2024):
Calls of active or inactive are those of the source.

Experiments:
Staphylococcus aureus [1] = assay: Antibacterial activity against methicillin-resistant Staphylococcus aureus clinical isolate M14 by CLSI based micro-broth dilution method; format: functional
Staphylococcus aureus [2] = assay: Antibacterial activity against methicillin-resistant Staphylococcus aureus clinical isolate M17 by CLSI based micro-broth dilution method; format: functional
Staphylococcus aureus [3] = assay: Antibacterial activity against methicillin-resistant Staphylococcus aureus clinical isolate M21 by CLSI based micro-broth dilution method; format: functional
[4] = Selectivity index, ratio of HC50 for hemolytic activity in sheep erythrocytes to MIC for antibacterial activity against Staphylococcus aureus ATCC 29213; format: toxicity, cell-based, RBC
Staphylococcus aureus [5] = assay: Bactericidal activity against Staphylococcus aureus ATCC 29213 at 8 times MIC incubated upto 8 hrs by time-kill assay; format: functional, organism-based
Staphylococcus aureus [6] = assay: Induction of resistance development in Staphylococcus aureus ATCC 29213 at 0.5 times MIC treated for 20 days of consecutive passages; format: functional, organism-based; settings: time 20.0 day
Staphylococcus aureus [7] = assay: Induction of membrane depolarization in methicillin-resistant Staphylococcus aureus clinical isolate M12 at 32 times MIC measured for 10 mins by DiSC3(5) dye based analysis; format: functional, organism-based
Staphylococcus aureus [8] = assay: Disruption of cell membrane in methicillin-resistant Staphylococcus aureus clinical isolate M12 assessed as increase in protein leakage incubated for 4 hrs by BCA assay; format: functional, organism-based; settings: dose <= 16.0 µg/ml
[9] = Toxicity in KM mouse assessed as animal survival at 5 to 80 mg/kg, sc; format: organism-based; settings: in vivo, dose 5-80 mg/kg
[10] = Toxicity in KM mouse assessed as formation of hard lumps at administration site at >40 mg/kg, sc; format: organism-based; settings: in vivo
[11] = Toxicity in KM mouse assessed as smooth skin at <20 mg/kg, sc; format: organism-based; settings: in vivo
[12] = Toxicity in KM mouse assessed as change in creatinine level at 20 mg/kg, sc measured after 24 hrs; format: organism-based; settings: in vivo
[13] = Toxicity in KM mouse assessed as change in MCV level at 20 mg/kg, sc measured after 24 hrs; format: organism-based; settings: in vivo
[14] = Toxicity in KM mouse assessed as change in RBC count at 20 mg/kg, sc measured after 24 hrs; format: organism-based; settings: in vivo
[15] = Toxicity in KM mouse assessed as change in WBC count at 20 mg/kg, sc measured after 24 hrs; format: organism-based; settings: in vivo
[16] = Toxicity in KM mouse assessed as degeneration of hepatocytes at 20 mg/kg, sc measured after 24 hrs by H and E staining based analysis; format: organism-based; settings: in vivo
[17] = Toxicity in KM mouse assessed as necrosis in hepatocytes at 20 mg/kg, sc measured after 24 hrs by H and E staining based analysis; format: organism-based; settings: in vivo
[18] = Toxicity in KM mouse assessed as degeneration of lung epithelial cells at 20 mg/kg, sc measured after 24 hrs by H and E staining based analysis; format: organism-based; settings: in vivo
[19] = Toxicity in KM mouse assessed as edema in renal tubular epithelial cells at 20 mg/kg, sc measured after 24 hrs by H and E staining based analysis; format: organism-based; settings: in vivo
[20] = Toxicity in KM mouse assessed as pathological change in red medulla of spleen at 20 mg/kg, sc measured after 24 hrs by H and E staining based analysis; format: organism-based; settings: in vivo
[21] = Toxicity in KM mouse assessed as pathological change in lung at 20 mg/kg, sc measured after 24 hrs by H and E staining based analysis; format: organism-based; settings: in vivo
[22] = Toxicity in KM mouse assessed as pathological change in kidney at 20 mg/kg, sc measured after 24 hrs by H and E staining based analysis; format: organism-based; settings: in vivo
[23] = Toxicity in BALB/c mouse assessed as loss of lustrous hair at 40 mg/kg, ip bid for 7 days; format: organism-based; settings: in vivo, 168 h, time 7 day
[24] = Toxicity in BALB/c mouse assessed as smooth hair at <15 mg/kg, ip bid for 7 days; format: organism-based; settings: in vivo, 168 h, time 7 day
[25] = Toxicity in BALB/c mouse assessed as feeding abnormality at <15 mg/kg, ip bid for 7 days; format: organism-based; settings: in vivo, 168 h, time 7 day
[26] = Toxicity in BALB/c mouse assessed as change in blood routine index at 15 mg/kg, ip bid for 7 days; format: organism-based; settings: in vivo, 168 h, time 7 day
[27] = Toxicity in BALB/c mouse assessed as degeneration of hepatocytes at 15 mg/kg, ip bid for 7 days; format: organism-based; settings: in vivo, 168 h, time 7 day
[28] = Toxicity in BALB/c mouse assessed as edema in hepatocytes at 15 mg/kg, ip bid for 7 days; format: organism-based; settings: in vivo, 168 h, time 7 day
[29] = Toxicity in BALB/c mouse assessed as inflammatory cell infiltration in hepatocytes at 15 mg/kg, ip bid for 7 days; format: organism-based; settings: in vivo, 168 h, time 7 day
[30] = Toxicity in BALB/c mouse assessed as pathological change in red medulla of spleen at 15 mg/kg, ip bid for 7 days; format: organism-based; settings: in vivo, 168 h, time 7 day
[31] = Toxicity in BALB/c mouse assessed as pathological change in white medulla of spleen at 15 mg/kg, ip bid for 7 days; format: organism-based; settings: in vivo, 168 h, time 7 day
Staphylococcus aureus [32] = assay: Bactericidal activity against methicillin-resistant Staphylococcus aureus clinical isolate M12 infected in KM mouse assessed as decrease in inflammatory cells in dermis at 10 mg/kg, sc measured after 24 hrs; format: functional, organism-based
Staphylococcus aureus [33] = assay: Antibacterial activity against methicillin-resistant Staphylococcus aureus clinical isolate M12 infected in KM mouse assessed as decrease in erythematous pustules at infected skin on back of animal at 5 mg/kg, sc measured after 24 hrs; format: functional, organism-based
Staphylococcus aureus [34] = assay: Antibacterial activity against methicillin-resistant Staphylococcus aureus clinical isolate M12 infected in KM mouse assessed as reduction in TNF-alpha level at infection site at 5 mg/kg, sc measured after 24 hrs by ELISA; format: functional
[35] = Toxicity in KM mouse infected with methicillin-resistant Staphylococcus aureus clinical isolate M12 assessed as damage in spleen at 5 to 10 mg/kg, sc measured after 24 hrs by H and E staining based analysis; format: organism-based; settings: in vivo, dose 5-10 mg/kg
[36] = Toxicity in sepsis BALB/c mouse model infected with methicillin-resistant Staphylococcus aureus clinical isolate M12 assessed as survival rate at 6 mg/kg, ip administered consecutively at 12 hr-interval for 7 days measured after 24 hrs post-last dose; format: organism-based; settings: in vivo, 192 h, time 8 day
[37] = Toxicity in sepsis BALB/c mouse model infected with methicillin-resistant Staphylococcus aureus clinical isolate M12 assessed as survival rate at 12 mg/kg, ip administered consecutively at 12 hr-interval for 7 days measured after 24 hrs post-last dose; format: organism-based; settings: in vivo, 192 h, time 8 day
Staphylococcus aureus [38] = assay: Antibacterial activity against methicillin-resistant Staphylococcus aureus clinical isolate M12 infected in sepsis BALB/c mouse model assessed as decrease in necrosis in hepatocytes at 12 mg/kg, ip administered consecutively at 12 hr-interval for 24 hrs measured after 24 hrs post-last dose by H and E staining based analysis; format: functional, organism-based; settings: time 48.0 hrs
Staphylococcus aureus [39] = assay: Antibacterial activity against methicillin-resistant Staphylococcus aureus clinical isolate M12 infected in sepsis BALB/c mouse model assessed as decrease in pathological change in red medulla of spleen at 6 mg/kg, ip administered consecutively at 12 hr-interval for 24 hrs measured after 24 hrs post-last dose by H and E staining based analysis; format: functional, organism-based; settings: time 48.0 hrs
Staphylococcus aureus [40] = assay: (§1) Antibacterial activity against methicillin-resistant Staphylococcus aureus clinical isolate M12 infected in sepsis BALB/c mouse model assessed as decrease in degeneration of renal tubular epithelial cells at 6 to 12 mg/kg, ip administered consecutively at 12 hr-interval for 24 hrs measured after 24 hrs post-last dose by H and E staining based analysis; format: functional, organism-based; settings: dose 6-12 mg/kg, time 48.0 hrs
Staphylococcus aureus [41] = assay: as §1, with “necrosis in” for “degeneration of”; format: functional, organism-based; settings: dose 6-12 mg/kg, time 48.0 hrs

C=CCc1cc(-c2ccc(OCCC[N+](C)(C)CC(=O)NCCCC)c(CC=C)c2)c2oc(=S)n(Cc3ccc(F)cc3)c2c1.[Br-]
2 µg/mL: MIC (Staphylococcus aureus [1]) | MIC (Staphylococcus aureus [3])
33.3%: Survival [37]
91.5 pg/mL: Activity (Staphylococcus aureus [34])
inactive: Activity (Staphylococcus aureus [6]) | Activity (Staphylococcus aureus [33]) | Activity (Staphylococcus aureus [39])
active: Activity (Staphylococcus aureus [5]) | Activity (Staphylococcus aureus [7]) | Activity (Staphylococcus aureus [8]) Dose-Dependent Effect | Activity (Staphylococcus aureus [32]) | Activity (Staphylococcus aureus [38]) | Activity (Staphylococcus aureus [40]) | Activity (Staphylococcus aureus [41])
Non-Toxic: Activity [9] | Activity [11] | Activity [12] | Activity [13] | Activity [14] | Activity [15] | Activity [16] | Activity [17] | Activity [18] | Activity [19] | Activity [20] | Activity [21] | Activity [22] | Activity [24] | Activity [25] | Activity [26] | Activity [27] | Activity [28] | Activity [29] | Activity [30] | Activity [31] | Activity [35]
95.1: selectivity ratio [4]
4 µg/mL: MIC (Staphylococcus aureus [2])
16.7%: Survival [36]
Toxic: Activity [10] | Activity [23]
